The results in this text go back to patent US12077503B2, “Substituted cyclic amides and their use as herbicides” (FMC CORPORATION, priority 2015, dated 2024).

Common to all, as to experiment: Test A postemergence
Common to all, as to format: in vivo

One experiment has as its system Kochia (Kochia scoparia). The following applies: Bassia scoparia, post-emergence, 240 h; for pest or weed control at 125 g/ha: 125 g ai/ha; for pest or weed control at 500 g/ha: 500 g ai/ha. An outline of the steps: (§1)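 Seeded soil received test chemicals as a preemergence directed spray, and seedlings at one to two leaves, 2–10 cm tall, received them postemergence, in a non-phytotoxic, surfactant-containing solvent mixture. Pots were held in a greenhouse for approximately 10 d, then rated for injury from 0, no effect, to 100, complete control.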

For experiment [1], the system named is giant foxtail (Setaria faberii). To be noted: Setaria faberi, post-emergence, 240 h; for pest or weed control at 125 g/ha: 125 g ai/ha; for pest or weed control at 500 g/ha: 500 g ai/ha. The procedure, abridged:
as §1

The subject of experiment [2] is wheat (Triticum aestivum). The following applies: Triticum aestivum, post-emergence, 240 h; for plant injury at 125 g/ha: 125 g ai/ha; for plant injury at 500 g/ha: 500 g ai/ha. The procedure, abridged:
as §1

In experiment [3] the test system is blackgrass (Alopecurus myosuroides). To be noted: Alopecurus myosuroides, post-emergence, 240 h; for pest or weed control at 125 g/ha: 125 g ai/ha; for pest or weed control at 500 g/ha: 500 g ai/ha. An outline of the steps: as §1
Experiment [4] concerns pigweed (Amaranthus retroflexus). The following applies: Amaranthus retroflexus, post-emergence, 240 h; for pest or weed control at 125 g/ha: 125 g ai/ha; for pest or weed control at 500 g/ha: 500 g ai/ha. An outline of the steps:
as §1

The test system of experiment [5] is ryegrass, Italian (Italian ryegrass, Lolium multiflorum). The following applies: Lolium multiflorum, post-emergence, 240 h; for pest or weed control at 125 g/ha: 125 g ai/ha; for pest or weed control at 500 g/ha: 500 g ai/ha. The procedure, abridged: as §1
Setting [6] is: Postemergence, visual injury after approximately 10 d, 0 to 100 scale where 0 is no effect and 100 is complete control, read-out: Plant response rating, Kochia.
[7] abbreviates: Postemergence, visual injury after approximately 10 d, 0 to 100 scale where 0 is no effect and 100 is complete control, read-out: Plant response rating, Foxtail, Giant.
Setting [8] is: Postemergence, visual injury after approximately 10 d, 0 to 100 scale where 0 is no effect and 100 is complete control, read-out: Plant response rating, Wheat.
[9] abbreviates: Postemergence, visual injury after approximately 10 d, 0 to 100 scale where 0 is no effect and 100 is complete control, read-out: Plant response rating, Blackgrass.
Setting [10] is: Postemergence, visual injury after approximately 10 d, 0 to 100 scale where 0 is no effect and 100 is complete control, read-out: Plant response rating, Pigweed.
Setting [11] is: Postemergence, visual injury after approximately 10 d, 0 to 100 scale where 0 is no effect and 100 is complete control, read-out: Plant response rating, Ryegrass, Italian.
[12] abbreviates: postemergence, visual injury on 0 to 100 scale (0 no effect, 100 complete control), approx. 10 d, read-out: Kochia plant response rating.
Where [13] appears, read: postemergence, visual injury on 0 to 100 scale (0 no effect, 100 complete control), approx. 10 d, read-out: Foxtail, Giant plant response rating.
Where [14] appears, read: postemergence, visual injury on 0 to 100 scale (0 no effect, 100 complete control), approx. 10 d, read-out: Wheat plant response rating.
The mark [15] stands for this setting: postemergence, visual injury on 0 to 100 scale (0 no effect, 100 complete control), approx. 10 d, read-out: Pigweed plant response rating.
Where [16] appears, read: postemergence, visual injury on 0 to 100 scale (0 no effect, 100 complete control), approx. 10 d, read-out: Ryegrass, Italian plant response rating.
[17] abbreviates: postemergence, visual injury rating after approximately 10 d, read-out: Kochia plant response rating (0 to 100 scale, 0 no effect, 100 complete control).
[18] abbreviates: postemergence, visual injury rating after approximately 10 d, read-out: Foxtail, Giant plant response rating (0 to 100 scale, 0 no effect, 100 complete control).
The mark [19] stands for this setting: postemergence, visual injury rating after approximately 10 d, read-out: Wheat plant response rating (0 to 100 scale, 0 no effect, 100 complete control).
Setting [20] is: postemergence, visual injury rating after approximately 10 d, read-out: Blackgrass plant response rating (0 to 100 scale, 0 no effect, 100 complete control).
Where [21] appears, read: postemergence, visual injury rating after approximately 10 d, read-out: Pigweed plant response rating (0 to 100 scale, 0 no effect, 100 complete control).
Where [22] appears, read: postemergence, visual injury rating after approximately 10 d, read-out: Ryegrass, Italian plant response rating (0 to 100 scale, 0 no effect, 100 complete control).
Where [23] appears, read: postemergence, 0 to 100 scale, 0 is no effect, 100 is complete control, read-out: Kochia plant response rating.
The mark [24] stands for this setting: postemergence, 0 to 100 scale, 0 is no effect, 100 is complete control, read-out: Foxtail, Giant plant response rating.
Where [25] appears, read: postemergence, 0 to 100 scale, 0 is no effect, 100 is complete control, read-out: Wheat plant response rating.
[26] abbreviates: postemergence, visual injury on 0 to 100 scale (0 no effect, 100 complete control), approx. 10 d, read-out: Blackgrass plant response rating.
Where [27] appears, read: postemergence, 0 to 100 scale, 0 is no effect, 100 is complete control, read-out: Blackgrass plant response rating.
Setting [28] is: postemergence, 0 to 100 scale, 0 is no effect, 100 is complete control, read-out: Pigweed plant response rating.
The mark [29] stands for this setting: postemergence, 0 to 100 scale, 0 is no effect, 100 is complete control, read-out: Ryegrass, Italian plant response rating.

Read-outs that look alike come from different tables or passages of the source.

Regarding `Cc1ccc([C@H]2CNC(=S)[C@@H]2C(=O)Nc2ccccc2F)cc1` (racemic) [Compound 945], the pest or weed control at 125 g/ha (with Kochia (Kochia scoparia) (setting [6]); in experiment [1] (setting [7]); in experiment [3] (setting [9]); in experiment [4] (setting [10]); in experiment [5] (setting [11])) was 0% in each case. Besides, the plant injury at 125 g/ha in experiment [2] (setting [8]) came out at 0%.
In the case of `O=C1NC[C@H](c2ccc3c(c2)OCO3)[C@H]1C(=O)Nc1ccc(F)c(F)c1F` [Compound 1027], the pest or weed control at 125 g/ha in the experiment on Kochia (Kochia scoparia) (setting [12]) amounted to 0%; in experiment [1] (setting [13]), 20%; in experiment [3] (setting [9]) it was 0%; in experiment [4] (setting [15]) it was 0%; in experiment [5] (setting [16]) it was 0%. Also, the pest or weed control at 500 g/ha with Kochia (Kochia scoparia) (postemergence, visual injury, 0 to 100 scale (0 no effect, 100 complete control), approx. 10 d, read-out: Plant response rating, Kochia) is 30%; in experiment [1] (postemergence, visual injury, 0 to 100 scale (0 no effect, 100 complete control), approx. 10 d, read-out: Plant response rating, Foxtail, Giant), 60%; in experiment [3] (postemergence, visual injury, 0 to 100 scale (0 no effect, 100 complete control), approx. 10 d, read-out: Plant response rating, Blackgrass), 40%; in experiment [4] (postemergence, visual injury, 0 to 100 scale (0 no effect, 100 complete control), approx. 10 d, read-out: Plant response rating, Pigweed) it was 0%; in experiment [5] (postemergence, visual injury, 0 to 100 scale (0 no effect, 100 complete control), approx. 10 d, read-out: Plant response rating, Ryegrass, Italian), 30%. Also, the plant injury at 125 g/ha in experiment [2] (setting [14]) was found to be 0%. Besides, the plant injury at 500 g/ha in experiment [2] (postemergence, visual injury, 0 to 100 scale (0 no effect, 100 complete control), approx. 10 d, read-out: Plant response rating, Wheat) amounted to 0%.
For `COc1c(F)ccc([C@H]2CN(C)C(=O)[C@@H]2C(=O)Nc2ccccc2C(F)(F)F)c1Cl` [Compound 896], the pest or weed control at 125 g/ha worked out at 20% in the experiment with Kochia (Kochia scoparia) (setting [17]); 90% in experiment [1] (setting [18]); 40% in experiment [3] (setting [20]); 20% in experiment [4] (setting [21]); 50% in experiment [5] (setting [22]). Also, the plant injury at 125 g/ha in experiment [2] (setting [19]) was found to be 30%.
On to `O=C1NC[C@H](c2cccc(C(F)(F)F)c2)[C@H]1C(=O)Nc1cccc2c1OC(F)(F)O2` [Compound 827], for which the pest or weed control at 125 g/ha with Kochia (Kochia scoparia) (setting [17]) amounted to 0%; in experiment [1] (setting [18]) it was 80%; in experiment [3] (setting [20]), 40%; in experiment [4] (setting [21]) it was 0%; in experiment [5] (setting [22]) it was 0%. In addition, in experiment [2] (setting [19]), the plant injury at 125 g/ha was 20%.
For `CN1C[C@H](c2cc(C(F)(F)F)cs2)[C@@H](C(=O)Nc2ccccc2F)C1=O` [Compound 962], the pest or weed control at 125 g/ha in the experiment with Kochia (Kochia scoparia) (setting [6]) turned out to be 20%; in experiment [1] (setting [7]) it was 90%; in experiment [3] (setting [9]) it was 20%; in experiment [4] (setting [10]) it was 0%; in experiment [5] (setting [11]), 20%. Further, the plant injury at 125 g/ha in experiment [2] (setting [8]) was 30%.
In the case of `COc1c(F)ccc([C@H]2CN(C)C(=O)[C@@H]2C(=O)Nc2ccc(F)c(F)c2F)c1Cl` [Compound 895], the pest or weed control at 125 g/ha stood at 70% in the experiment on Kochia (Kochia scoparia) (setting [17]); 90% in experiment [1] (setting [18]); 60% in experiment [3] (setting [20]); 40% in experiment [4] (setting [21]); 60% in experiment [5] (setting [22]). In addition, in experiment [2] (setting [19]), the plant injury at 125 g/ha amounted to 40%.
In the case of `Cc1cc([C@H]2CN(C)C(=O)[C@@H]2C(=O)Nc2ccc(F)cc2F)ccc1Br` [Compound 1100], the pest or weed control at 125 g/ha in the experiment on Kochia (Kochia scoparia) (setting [12]) turned out to be 0%; in experiment [1] (setting [13]) it was 70%; in experiment [3] (setting [26]) it was 0%; in experiment [4] (setting [15]), 0%; in experiment [5] (setting [16]), 20%. In addition, the pest or weed control at 500 g/ha with Kochia (Kochia scoparia) (setting [23]) is 20%; in experiment [1] (setting [24]) it was 70%; in experiment [3] (setting [27]), 20%; in experiment [4] (setting [28]), 0%; in experiment [5] (setting [29]), 20%. For the same molecule, in experiment [2] (setting [14]), the plant injury at 125 g/ha was 0%. Further, the plant injury at 500 g/ha in experiment [2] (setting [25]) came to 20%.
In the case of `CN1C[C@H](c2cc(F)cc(Cl)c2)[C@@H](C(=O)Nc2ccccc2S(C)(=O)=O)C1=O` [Compound 979], the pest or weed control at 125 g/ha with Kochia (Kochia scoparia) (setting [6]) turned out to be 30%; in experiment [1] (setting [7]) it was 90%; in experiment [3] (setting [9]) it was 60%; in experiment [4] (setting [10]) it was 40%; in experiment [5] (setting [11]), 20%. In addition, the plant injury at 125 g/ha in experiment [2] (setting [8]) was determined as 50%.
Take `CN1C[C@H](c2cc(F)cc(F)c2)[C@@H](C(=O)Nc2ccncc2F)C1=O` [Compound 1095]: the pest or weed control at 125 g/ha (with Kochia (Kochia scoparia) (setting [12]); in experiment [1] (setting [13]); in experiment [3] (setting [26]); in experiment [4] (setting [15]); in experiment [5] (setting [16])) was 0% in each case. The pest or weed control at 500 g/ha (in the experiment on Kochia (Kochia scoparia) (setting [23]); in experiment [1] (setting [24]); in experiment [3] (setting [27]); in experiment [4] (setting [28]); in experiment [5] (setting [29])) was 0% each time. Further, the plant injury at 125 g/ha in experiment [2] (setting [14]) worked out at 0%. Also, the plant injury at 500 g/ha in experiment [2] (setting [25]) stood at 0%.
Consider `CN1C[C@H](c2cccc(OC(F)(F)C(F)F)c2)[C@@H](C(=O)Nc2ccccc2S(C)(=O)=O)C1=O` [Compound 864], for which the pest or weed control at 125 g/ha worked out at 0% in the experiment on Kochia (Kochia scoparia) (setting [17]); 70% in experiment [1] (setting [18]); 50% in experiment [3] (setting [20]); 20% in experiment [4] (setting [21]); 50% in experiment [5] (setting [22]). The plant injury at 125 g/ha in experiment [2] (setting [19]) turned out to be 50%.
